Where no end group is shown, it is not given here.
T1: thermostable variant of Streptomyces mobaraensis transglutaminase (Streptomyces mobaraensis, UniProt P81453 79-407)
T1 sequence: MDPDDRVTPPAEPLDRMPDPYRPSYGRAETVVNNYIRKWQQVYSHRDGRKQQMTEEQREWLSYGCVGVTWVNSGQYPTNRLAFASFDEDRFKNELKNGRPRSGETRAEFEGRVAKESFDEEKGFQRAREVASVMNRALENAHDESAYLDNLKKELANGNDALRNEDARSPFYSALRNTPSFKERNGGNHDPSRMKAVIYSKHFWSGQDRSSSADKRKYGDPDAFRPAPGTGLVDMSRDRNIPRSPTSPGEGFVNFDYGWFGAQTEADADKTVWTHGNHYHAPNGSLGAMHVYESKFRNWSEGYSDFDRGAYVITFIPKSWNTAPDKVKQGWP


Columns and labels:
[1] = target: T2, thermostable mature transglutaminase variant (SEQ ID NO: 3) (Streptomyces mobaraensis, UniProt P81453); format: biochemical; settings: increase in transglutaminase activity relative to wild-type pro-peptide, casein assay; Method A
T2 construct: made in house; host or cells: E. coli (lysate)
Text: Method A. A bicistronic expression vector encoding the wild-type pro-domain of transglutaminase (SEQ ID NO: 2) and a thermostable mature transglutaminase variant (SEQ ID NO: 3) as separate polypeptides was cloned as described in PCT/US20/49226 (WO2021/178001 A1). The vector was used as a template for synthesis of a random mutagenesis library targeting the pro-domain coding sequence to create pro-domain peptide variants.
Method A. Plasmid libraries containing mature transglutaminase and variant pro-domain peptides were plated on Luria-Bertani (LB) agar plates containing 50 μg/mL of kanamycin. After incubation for at least 16 hours at 37° C., colonies were picked and inoculated into 1 mL of LB broth with 50 μg/mL kanamycin in one well of a 96 deep well culture plate. The plate was covered with a breathable seal and incubated overnight at 37° C. with 400 rpm of shaking. 10 μL of the seed culture was used to inoculate 1 mL of media in a 96 deep well culture plate for expression. The expression plate was allowed to grow for 6-8 hours at 30° C. Expression was then induced by adding isopropyl beta-D-1-thiogalactopyranoside (IPTG) to a final concentration of 1 mM and the temperature was reduced to 20° C. while growth continued for an additional 15 hours. Cells were harvested by centrifugation at 4000 rcf for 30 minutes and pellets were frozen at −80° C.
A secondary screen was performed to determine initial rate of transglutaminase in the presence of the pro-peptide variants using transglutaminase-catalyzed labeling of casein with dansylcadaverine (e.g., a commercially available kit such as the Transglutaminase Fluorogenic Activity Assay Kit, T036, Zedira, Germany). Transglutaminase activity was monitored by measuring the fluorescence (excitation wavelength 332 nm; emission wavelength 500 nm) using a BioTek Synergy H1 microplate reader. Transglutaminase-catalyzed covalent coupling (crosslinking) of monodansylcadaverine with N,N-dimethylcasein produces a product that causes a shift in intensity and wavelength of fluorescence of the dansyl group now linked to the casein. The relative transglutaminase activity is shown by increase of fluorescence intensity over time. The data were normalized for transglutaminase expression levels in E. coli lysate as described above. Pro-domain variants were identified based on their ability to alter the activity of the mature transglutaminase enzyme. […]
It is believed that these pro-peptide variants have reduced binding affinity with mature mTgase.

[2] = target: T1, thermostable variant of Streptomyces …; assay: cell-based or functional assay
[3] = target: T1, thermostable variant of Streptomyces …; assay: cell-based or functional assay; remark: listed apart in the source

| Molecule | Reduction in binding affinity of inhibitory peptide relative to WT [1] [fold] | Reduction in binding affinity of inhibitory peptide relative to WT [2] [fold] | Improvement in pH responsiveness of inhibitory peptide relative to WT [3] [fold] |
| --- | --- | --- | --- |
| MDNGAGEETKSYAETYRLTADDVANYNALNESAPAASSAGPSFRAP [Variant I26Y] | >1.2 |  |  |
| MDNGAGEETKSYAETYRLTADRVANINALNESAPAASSAGPSFRAP [Variant D22R] | >1.2 |  |  |
| MDNGAGEEQKSYAETYRLTADDVANINALNESAPAASSAGPSFRAP [Variant T9Q] | >1.2 |  |  |
| MDNGAGEETKSLAETYRLTADDVANINALNESAPAASSAGPSFRAP [Variant Y12L] | >1.2 |  |  |
| MDNGAGEETKS [ΔY12-P46] | >1.2 |  |  |
| MDNGAGEETKSYAETYRLTADDVANENALNESAPAASSAGPSFRAP [Variant I26E] | >1.2 |  |  |
| MDNGAGEETKSTAETYRLTADDVANINALNESAPAASSAGPSFRAP [Variant Y12T] | >1.2 |  |  |
| MDNGAGEETKSYAGTYRLTADDVANINALNESAPAASSAGPSFRAP [Variant E14G] | >1.2 |  |  |
| MDNGAGEETKSYAETYRLTADYVANINALNESAPAASSAGPSFRAP [Variant D22Y] | >1.2 |  |  |
| MDNGAGEETKSSAETYRLTADDVANINALNESAPAASSAGPSFRAP [Variant Y12S] | >5 |  |  |
| MDNGAGEETKSYAETYRWTADDVANINALNESAPAASSAGPSFRAP [Variant L18W] | >1.2 |  |  |
| MDNGAGEETKSYAETYRKTADDVANINALNESAPAASSAGPSFRAP [Variant L18K] | >1.2 |  |  |
| MDNGAGEETKSYAETYRETADDVANINALNESAPAASSAGPSFRAP [Variant L18E] | >1.2 |  |  |
| MDNGAGEETKHYAETYRLTADDVANINALNESAPAASSAGPSFRAP [Variant S11H] | >1.2 |  |  |
| MDNGAGEETKSYAETYRLTADPVANINALNESAPAASSAGPSFRAP [Variant D22P] | >1.2 |  |  |
| MDNGAGEETKSYANTYRLTADDVANINALNESAPAASSAGPSFRAP [Variant E14N] | >1.2 |  |  |
| MDNGAGEETKKYAETYRLTADDVANINALNESAPAASSAGPSFRAP [Variant S11K] | >1.2 |  |  |
| MDNGAGEETKSYAETYRLTADDVANANALNESAPAASSAGPSFRAP [Variant I26A] | >1.2 |  |  |
| MDNGAGEETKSYAETYRLTAD [ΔD22-P46] | >1.2 |  |  |
| MDNGAGEETKSYAETYRSTADDVANINALNESAPAASSAGPSFRAP [Variant L18S] | >1.2 |  |  |
| MDNGAGEETKSYAATYRLTADDVANINALNESAPAASSAGPSFRAP [Variant E14A] | >1.2 |  |  |
| MDNGAGEETKSYAVTYRLTADDVANINALNESAPAASSAGPSFRAP [Variant E14V] | >1.2 |  |  |
| MDNGAGEETKSYACTYRLTADDVANINALNESAPAASSAGPSFRAP [Variant E14C] | >1.2 |  |  |
| MDNGAGEETKSYAETYRLTADDVANINALNESAPAASYAGPSFRAP [Variant S38Y] | >1.2 |  |  |

| Molecule | Reduction in binding affinity of inhibitory peptide relative to WT [1] [fold] | Reduction in binding affinity of inhibitory peptide relative to WT [2] [fold] | Improvement in pH responsiveness of inhibitory peptide relative to WT [3] [fold] |
| --- | --- | --- | --- |
| MDNGAGEETKYYAETYRLTADDVANINALNESAPAASSAGPSFRAP [Variant S11Y] | >1.2 |  |  |
| MDNGAGEETDSYAETYRLTADDVANINALNESAPAASSAGPSFRAP [Variant K10D] | >1.2 |  |  |
| MDNGAGGETKSYAETYRLTADDVANINALNESAPAASSAGPSFRAP [Variant E7G] | >1.2 |  |  |
| MDNGAGEETKSYAETYRLTADGVANINALNESAPAASSAGPSFRAP [Variant D22G] | >1.2 |  |  |
| MDNGAGEYTKSYAETYRLTADDVANINALNESAPAASSAGPSFRAP [Variant E8Y] | >1.2 |  |  |
| MDNGAGEETKSVAETYRLTADDVANINALNESAPAASSAGPSFRAP [Variant Y12V] | >1.2 |  |  |
| MDNGAGEETKSYATTYRLTADDVANINALNESAPAASSAGPSFRAP [Variant E14T] | >1.2 |  |  |
| MDNGAGEETKSYAHTYRLTADDVANINALNESAPAASSAGPSFRAP [Variant E14H] | >1.2 |  |  |
| MDNGAGEETKSYAETYRLTADDVANINALNESAPAASDAGPSFRAP [Variant S38D] | >1.2 |  |  |
| MDNGAGEETKSGAETYRLTADDVANINALNESAPAASSAGPSFRAP [Variant Y12G] | >1.2 |  |  |
| MDNGAGEETKSYARTYRLTADDVANINALNESAPAASSAGPSFRAP [Variant E14R] | >1.2 |  |  |
| MDNGAGEETKGYAETYRLTADDVANINALNESAPAASSAGPSFRAP [Variant S11G] | >5 |  |  |
| MDNGAGEETKSYADTYRLTADDVANINALNESAPAASSAGPSFRAP [Variant E14D] | >1.2 |  |  |
| MDNGAGEETGSYAETYRLTADDVANINALNESAPAASSAGPSFRAP [Variant K10G] | >1.2 |  |  |
| MDNGAGEETKSYARTYRLTADDVANINALNESAPAASSAGPSFRAP [pro-peptide variant E14R] |  | > 1.2 | > 1.2 |
| MDNGAGEETKSYATTYRLTADDVANINALNESAPAASSAGPSFRAP [pro-peptide variant E14T] |  | > 1.2 | > 1.2 |
| MDNGAGEETKSYAVTYRLTADDVANINALNESAPAASSAGPSFRAP [pro-peptide variant E14V] |  | > 1.2 | > 1.2 |
| MDNGAGEETKSYAETYRKTADDVANINALNESAPAASSAGPSFRAP [pro-peptide variant L18K] |  | > 1.2 | > 1.2 |
| MDNGAGEETKSYAETYRWTADDVANINALNESAPAASSAGPSFRAP [pro-peptide variant L18W] |  | > 1.2 | > 1.2 |
| MDNGAGEETKSYAETYRLTALDVANINALNESAPAASSAGPSFRAP [pro-peptide variant D21L] |  | > 5 | > 1.2 |
| MDNGAGEETKSYAETYRLTARDVANINALNESAPAASSAGPSFRAP [pro-peptide variant D21R] |  | > 5 | > 1.2 |
| MDNGAGEETKSYAETYRLTADGVANINALNESAPAASSAGPSFRAP [pro-peptide variant D22G] |  | > 1.2 | > 1.2 |
| MDNGAGEETKSYAETYRLTADDVHNINALNESAPAASSAGPSFRAP [pro-peptide variant A24H] |  | > 1.2 | > 5 |
| MDNGAGEETKSYAETYRLTADDVANYNALNESAPAASSAGPSFRAP [pro-peptide variant I26Y] |  | > 1.2 | > 1.2 |

Reference: patent US20250304927A1, “PRO-PEPTIDE VARIANTS FOR MODULATING ACTIVITY OF TRANSGLUTAMINASES” (CURIE CO. INC., priority 2022, published 2025)
